Measurements reported in BindingDB's records for doi:10.1021/bi00445a011 (Harvard University, 1989).
pKi: −log10 of the molar value.

Molecular target: T1, 3-dehydroquinate synthase (Escherichia coli (strain K12), UniProt P07639)
T1 sequence (P07639 whole entry): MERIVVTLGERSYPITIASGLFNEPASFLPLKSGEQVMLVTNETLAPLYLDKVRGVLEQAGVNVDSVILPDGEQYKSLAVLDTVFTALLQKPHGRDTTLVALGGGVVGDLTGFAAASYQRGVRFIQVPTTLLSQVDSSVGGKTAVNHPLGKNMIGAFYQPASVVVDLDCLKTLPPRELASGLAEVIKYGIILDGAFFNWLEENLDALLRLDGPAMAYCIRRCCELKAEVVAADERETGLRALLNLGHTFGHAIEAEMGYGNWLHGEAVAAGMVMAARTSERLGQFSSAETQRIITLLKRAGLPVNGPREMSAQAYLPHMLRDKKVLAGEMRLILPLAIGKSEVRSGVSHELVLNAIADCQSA
Assay: Enzyme Inhibition
Text: Enzyme inhibition using dehydroquinate synthase.

pKi	SMILES
6.92	O=C(O)C1(O)CC(O)C(O)C(CP(=O)(O)O)O1 (configuration not stated) [2,4,5-trihydroxy-6-(phosphonatomethyl)oxane-2-carboxylate, 4]
4.46	O=C(O)C1CC(O)C(O)C(CP(=O)(O)O)O1 (configuration not stated) [4,5-dihydroxy-6-(phosphonatomethyl)oxane-2-carboxylate, 3]
